From patent publication US12600725B2 (Memorial Sloan-Kettering Cancer Center, priority 2013, dated 2026)

Tests used:
Grp94 = Grp94 (Canis lupus familiaris, UniProt P41148); conditions: read-out: Grp94; FP competition, 6 nM Cy3B-GM, 10 nM protein, 4° C. for 24 h
Hsp90α = Hsp90α (Homo sapiens, UniProt P07900); test: biochemical; conditions: FP competition, 6 nM Cy3B-GM, 10 nM protein, 4° C. for 24 h

Sequence of Grp94 (P41148 with tags, fused parts or gaps DELINS287-327GGGG): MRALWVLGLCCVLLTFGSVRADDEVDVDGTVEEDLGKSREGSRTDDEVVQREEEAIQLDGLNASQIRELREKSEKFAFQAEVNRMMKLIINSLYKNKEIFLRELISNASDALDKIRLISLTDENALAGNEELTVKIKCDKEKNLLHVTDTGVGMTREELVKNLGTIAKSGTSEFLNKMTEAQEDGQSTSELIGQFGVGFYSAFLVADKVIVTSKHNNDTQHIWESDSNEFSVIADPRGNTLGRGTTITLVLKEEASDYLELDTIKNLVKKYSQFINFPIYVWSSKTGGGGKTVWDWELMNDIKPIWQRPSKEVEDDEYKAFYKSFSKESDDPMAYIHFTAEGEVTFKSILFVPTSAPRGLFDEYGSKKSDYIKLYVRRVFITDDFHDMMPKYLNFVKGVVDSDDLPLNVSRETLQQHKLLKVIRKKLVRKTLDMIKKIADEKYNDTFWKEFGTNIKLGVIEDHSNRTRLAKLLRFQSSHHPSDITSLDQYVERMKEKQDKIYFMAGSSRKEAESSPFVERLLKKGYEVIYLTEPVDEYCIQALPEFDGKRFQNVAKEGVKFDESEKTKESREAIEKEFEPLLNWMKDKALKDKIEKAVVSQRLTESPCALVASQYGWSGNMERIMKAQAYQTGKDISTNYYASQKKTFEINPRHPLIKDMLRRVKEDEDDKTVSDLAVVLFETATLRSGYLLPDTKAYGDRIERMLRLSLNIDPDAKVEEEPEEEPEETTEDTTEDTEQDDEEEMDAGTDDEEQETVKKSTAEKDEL

IC50 (Grp94) [µM]	IC50 (Hsp90α) [µM]	SMILES
0.26	47.5	COc1cccc(-c2cc(Cl)cc(Sc3nc4c(N)ncnc4n3CCCNC(C)C)c2)c1 [HJP-VI-7, 8-((5-chloro-3′-methoxy-[1,1′-biphenyl]-3-yl)thio)-9-(3-(isopropylamino)propyl)-9H-purin-6-amine]
0.58	47.3	CC(C)NCCCn1c(Sc2cc(Cl)cc(-c3cccc([N+](=O)[O-])c3)c2)nc2c(N)ncnc21 [HJP-VI-8, 8-((5-chloro-3′-nitro-[1,1′-biphenyl]-3-yl)thio)-9-(3-(isopropylamino)propyl)-9H-purin-6-amine]
0.26	13.8	CC(C)NCCCn1c(Sc2cc(Cl)cc(-c3cccc(C(F)(F)F)c3)c2)nc2c(N)ncnc21 [HJP-VI-9, 8-((5-chloro-3′-(trifluoromethyl)-[1,1′-biphenyl]-3-yl)thio)-9-(3-(isopropylamino)propyl)-9H-purin-6-amine]
0.16	7.9	CC(C)NCCCn1c(Sc2cc(Cl)cc(-c3cccs3)c2)nc2c(N)ncnc21 [HJP-VI-10, 8-((3-chloro-5-(thiophen-2-yl)phenyl)thio)-9-(3-(isopropylamino)propyl)-9H-purin-6-amine]
0.16	> 50	CC(C)=C(C)c1cc(Cl)cc(Sc2nc3c(N)ncnc3n2CCCNC(C)C)c1 [HJP-VI-14, 8-((3-chloro-5-(3-methylbut-2-en-2-yl)phenyl)thio)-9-(3-(isopropylamino)propyl)-9H-purin-6-amine]
1.5	> 50	CC(C)NCCCn1c(Sc2ccc(Cl)cc2F)nc2c(N)ncnc21 [HJP-VI-23, 8-((4-chloro-2-fluorophenyl)thio)-9-(3-(isopropylamino)propyl)-9H-purin-6-amine]
0.32	16.7	CC(C)NCCCn1c(Sc2cc(Cl)cc(-c3ccco3)c2)nc2c(N)ncnc21 [HJP-VI-30, 8-((3-chloro-5-(furan-2-yl)phenyl)thio)-9-(3-(isopropylamino)propyl)-9H-purin-6-amine]
> 5	14.2	CC(C)NCCCn1c(Sc2ccc(Cl)cc2[N+](=O)[O-])nc2c(N)ncnc21 [HJP-VI-32, 8-((4-chloro-2-nitrophenyl)thio)-9-(3-(isopropylamino)propyl)-9H-purin-6-amine]
0.75	25.9	Cc1ccc(-c2cc(Cl)cc(Sc3nc4c(N)ncnc4n3CCCNC(C)C)c2)o1 [HJP-VI-38, 8-((3-chloro-5-(5-methylfuran-2-yl)phenyl)thio)-9-(3-(isopropylamino)propyl)-9H-purin-6-amine]
1.1	66.9	CC(C)NCCCn1c(Sc2ccc(Cl)cc2-c2ccc[nH]2)nc2c(N)ncnc21 [HJP-VI-42, 8-((4-chloro-2-(1H-pyrrol-2-yl)phenyl)thio)-9-(3-(isopropylamino)propyl)-9H-purin-6-amine]
1.9	15.9	CC(C)NCCCn1c(Sc2cc(Cl)cc(-c3cn[nH]c3)c2)nc2c(N)ncnc21 [HJP-VI-46, 8-((3-chloro-5-(1H-pyrazol-4-yl)phenyl)thio)-9-(3-(isopropylamino)propyl)-9H-purin-6-amine]
1.2	> 50	CC(C)C#Cc1cc(Cl)cc(Sc2nc3c(N)ncnc3n2CCCNC(C)C)c1 [HJP-VI-51, 8-((3-chloro-5-(3-methylbut-1-yn-1-yl)phenyl)thio)-9-(3-(isopropylamino)propyl)-9H-purin-6-amine]
0.18	> 50	CC(C)NCCCn1c(Sc2cc(Cl)cc(C#CC3CC3)c2)nc2c(N)ncnc21 [HJP-VI-52, 8-((3-chloro-5-(cyclopropylethynyl)phenyl)thio)-9-(3-(isopropylamino)propyl)-9H-purin-6-amine]
0.63	> 50	CC(C)NCCCn1c(Sc2cc(Cl)cc(C#CC(C)(C)C)c2)nc2c(N)ncnc21 [HJP-VI-53, 8-((3-chloro-5-(3,3-dimethylbut-1-yn-1-yl)phenyl)thio)-9-(3-(isopropylamino)propyl)-9H-purin-6-amine]
